Assay results as given in ChEMBL document CHEMBL1201862, “PubChem BioAssay data set” (2004).
Calls of active or inactive are those of the source.

Key:
[1] = blockers of CRF-binding protein–CRF-R2 complex – cell-based, uHTS hits, 384-well, dose response (AID 651639); format: functional, Homo sapiens; conditions: read-out: IC50_Mean
[2] = target: T1, Corticotropin-releasing factor receptor 2/Corticotropin-releasing factor-binding protein (Homo sapiens, UniProt P24387+Q13324); assay: activators of CRF receptor 2 with binding protein – uHTS hits, confirmation (AID 602473); format: functional; conditions: read-out: EC50_Mean
T1 sequence (Q13324 whole entry): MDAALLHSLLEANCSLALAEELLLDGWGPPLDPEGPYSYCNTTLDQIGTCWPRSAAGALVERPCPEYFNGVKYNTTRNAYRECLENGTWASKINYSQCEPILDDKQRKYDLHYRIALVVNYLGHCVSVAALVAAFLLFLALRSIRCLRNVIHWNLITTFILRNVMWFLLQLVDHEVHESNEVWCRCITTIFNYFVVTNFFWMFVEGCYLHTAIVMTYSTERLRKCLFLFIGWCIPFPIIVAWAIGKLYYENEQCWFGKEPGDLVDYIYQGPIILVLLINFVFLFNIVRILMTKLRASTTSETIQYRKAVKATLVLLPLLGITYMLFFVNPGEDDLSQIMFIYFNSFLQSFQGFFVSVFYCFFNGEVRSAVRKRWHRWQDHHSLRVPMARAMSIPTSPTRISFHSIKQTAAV
T1 sequence (P24387 whole entry): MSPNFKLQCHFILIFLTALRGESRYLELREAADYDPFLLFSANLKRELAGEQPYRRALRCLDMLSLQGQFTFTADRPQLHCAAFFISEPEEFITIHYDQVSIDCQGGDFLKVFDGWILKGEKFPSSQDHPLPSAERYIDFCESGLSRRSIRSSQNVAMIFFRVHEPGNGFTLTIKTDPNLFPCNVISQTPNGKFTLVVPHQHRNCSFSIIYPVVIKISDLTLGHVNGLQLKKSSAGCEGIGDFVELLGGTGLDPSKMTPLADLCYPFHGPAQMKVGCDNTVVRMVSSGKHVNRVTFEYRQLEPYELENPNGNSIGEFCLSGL

[3] = target: T1, Corticotropin-releasing factor receptor 2/Corticotropin-releasing factor-binding protein; assay: Dose Response confirmation of uHTS hits for small molecule antagonists of the CRF-binding protein and CRF-R2 receptor complex.; format: functional; conditions: read-out: IC50_Mean
[4] = target: T2, Polyadenylate-binding protein 1 (Homo sapiens, UniProt P11940); assay: MLLE domain peptide-binding blockers, IC50 – biochemical, fluorescence polarization, FITC-PAM2 peptide, dose response (AID 602259); format: functional; conditions: read-out: IC50_Mean
[5] = target: Genome polyprotein (dengue virus type 2, UniProt P29990); assay: flavivirus cap methylation enzyme inhibition – biochemical, confirmation dose response, primary screen (AID 588689); format: functional
[6] = target: T2, Polyadenylate-binding protein 1; assay: MLLE binding blockers, Cy5 peptide tracer – biochemical, fluorescence polarization, Cy5-PAM2 peptide, secondary, miRNA deadenylation inhibitor project, dose response (AID 602260); format: functional; conditions: read-out: IC50_Mean
[7] = tested on: Vero; assay: viability of Vero cells under compound – cytotoxicity control for flavivirus capping enzyme inhibitors (AID 588742); format: functional; conditions: Chlorocebus sabaeus
[8] = target: T3, Zinc finger protein mex-5 (Caenorhabditis elegans, UniProt Q9XUB2); assay: potency of MEX-5 RNA-binding blockers – biochemical, C. elegans, fluorescence polarization, dose response (AID 1960)
T3 sequence (Q9XUB2 whole entry): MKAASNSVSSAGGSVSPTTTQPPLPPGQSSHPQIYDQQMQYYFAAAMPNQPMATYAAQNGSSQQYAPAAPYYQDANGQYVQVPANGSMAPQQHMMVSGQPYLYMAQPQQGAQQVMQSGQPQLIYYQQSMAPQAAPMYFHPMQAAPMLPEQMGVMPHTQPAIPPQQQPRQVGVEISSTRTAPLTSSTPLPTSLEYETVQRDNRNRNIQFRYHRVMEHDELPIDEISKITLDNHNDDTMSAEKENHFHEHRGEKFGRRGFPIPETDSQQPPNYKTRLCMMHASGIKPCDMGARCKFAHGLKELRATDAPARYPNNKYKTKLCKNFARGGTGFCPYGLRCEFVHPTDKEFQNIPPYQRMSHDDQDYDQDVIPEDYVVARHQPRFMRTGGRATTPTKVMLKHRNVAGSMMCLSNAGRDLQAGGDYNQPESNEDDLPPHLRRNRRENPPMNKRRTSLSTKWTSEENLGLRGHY

[9] = target: Heat shock protein HSP 90-alpha (Homo sapiens, UniProt P07900); format: functional, organism-based
[10] = tested on: Streptococcus; assay: GAS UMAA2166 growth inhibition – luminescence, BacTiterGlo, counter-screen for streptokinase expression inhibitor project, dose response (AID 1915); format: functional, organism-based;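 note: potency for reduction of bacterial viability or growth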
[11] = tested on: Streptococcus sp. 'group A'; assay: Streptococcus pyogenes SK(-)GAS viability under kanamycin – luminescence, BacTiterGlo, confirmation, counter-screen for streptokinase expression inhibitor project, dose response (AID 1900); format: functional, organism-based
[12] = target: T4, RNA-binding protein pos-1 (Caenorhabditis elegans, UniProt G5EF15); assay: disruptors of C. elegans POS-1 RNA interaction – biochemical, fluorescence polarization, dose response (AID 1964);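 note: purified POS-1 fused to maltose binding protein made in E. coli; potency of compounds blocking POS-1 binding to fluorescent RNA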
T4 sequence (G5EF15 whole entry): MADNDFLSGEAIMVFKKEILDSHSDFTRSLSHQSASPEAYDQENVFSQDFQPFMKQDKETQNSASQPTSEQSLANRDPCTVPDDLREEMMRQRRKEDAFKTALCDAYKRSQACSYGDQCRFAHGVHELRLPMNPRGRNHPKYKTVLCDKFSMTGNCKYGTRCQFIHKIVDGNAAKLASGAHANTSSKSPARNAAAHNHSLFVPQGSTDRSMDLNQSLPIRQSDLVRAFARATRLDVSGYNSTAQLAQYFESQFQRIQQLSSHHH

[13] = NIH-3T3 fibroblast cytotoxicity, dose response, cytotoxicity control, cell-based, fluorescence, Alamar Blue, secondary assay (AID 2327); format: functional;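 note: NIH-3T3 mouse fibroblasts cultured with fluconazole at 8 µg/mL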
[14] = fluconazole-exposed Candida albicans growth modulators – fluorescence, retest, confirmation (AID 2467); format: functional, cell-based
[15] = target: T5, Streptokinase A (Streptococcus pyogenes serotype M1, UniProt P10520); assay: viability-normalized secreted streptokinase activity reduction – plasminogen activation absorbance, OD405, dose response (AID 1914); format: functional, Streptococcus pyogenes M1 GAS;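 note: secreted streptokinase activity via plasminogen activation per viability signal from cell pellet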
T5 sequence (P10520 whole entry): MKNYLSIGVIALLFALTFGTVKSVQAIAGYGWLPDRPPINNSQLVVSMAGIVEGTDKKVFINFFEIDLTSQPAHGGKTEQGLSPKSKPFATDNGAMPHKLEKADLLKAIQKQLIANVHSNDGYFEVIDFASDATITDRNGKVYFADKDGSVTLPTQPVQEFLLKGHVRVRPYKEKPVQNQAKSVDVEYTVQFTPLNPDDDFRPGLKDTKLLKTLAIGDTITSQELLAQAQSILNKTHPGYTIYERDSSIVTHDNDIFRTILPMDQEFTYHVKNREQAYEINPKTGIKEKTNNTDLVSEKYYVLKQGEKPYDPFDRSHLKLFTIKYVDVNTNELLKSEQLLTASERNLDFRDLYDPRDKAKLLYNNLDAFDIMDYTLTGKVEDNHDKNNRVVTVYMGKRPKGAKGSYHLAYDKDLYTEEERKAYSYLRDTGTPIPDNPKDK

[16] = target: T6, Carboxy-terminal domain RNA polymerase II polypeptide A small phosphatase 1 (Homo sapiens, UniProt Q9GZU7); assay: CTDSP1 inhibitors, concentration-response, biochemical, absorbance readout, ultra-high-throughput screen actives (AID 540297); format: functional
T6 sequence (Q9GZU7 whole entry): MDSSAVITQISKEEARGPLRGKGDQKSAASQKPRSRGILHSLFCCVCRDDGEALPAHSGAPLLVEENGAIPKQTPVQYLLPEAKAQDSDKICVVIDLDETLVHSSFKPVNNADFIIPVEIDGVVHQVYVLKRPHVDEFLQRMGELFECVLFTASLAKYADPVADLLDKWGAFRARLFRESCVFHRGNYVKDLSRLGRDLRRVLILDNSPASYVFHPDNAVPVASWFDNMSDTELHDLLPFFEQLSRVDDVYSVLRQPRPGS

[17] = target: T7, Histone-lysine N-methyltransferase NSD2 (Homo sapiens, UniProt O96028); format: biochemical
T7 sequence (O96028 whole entry): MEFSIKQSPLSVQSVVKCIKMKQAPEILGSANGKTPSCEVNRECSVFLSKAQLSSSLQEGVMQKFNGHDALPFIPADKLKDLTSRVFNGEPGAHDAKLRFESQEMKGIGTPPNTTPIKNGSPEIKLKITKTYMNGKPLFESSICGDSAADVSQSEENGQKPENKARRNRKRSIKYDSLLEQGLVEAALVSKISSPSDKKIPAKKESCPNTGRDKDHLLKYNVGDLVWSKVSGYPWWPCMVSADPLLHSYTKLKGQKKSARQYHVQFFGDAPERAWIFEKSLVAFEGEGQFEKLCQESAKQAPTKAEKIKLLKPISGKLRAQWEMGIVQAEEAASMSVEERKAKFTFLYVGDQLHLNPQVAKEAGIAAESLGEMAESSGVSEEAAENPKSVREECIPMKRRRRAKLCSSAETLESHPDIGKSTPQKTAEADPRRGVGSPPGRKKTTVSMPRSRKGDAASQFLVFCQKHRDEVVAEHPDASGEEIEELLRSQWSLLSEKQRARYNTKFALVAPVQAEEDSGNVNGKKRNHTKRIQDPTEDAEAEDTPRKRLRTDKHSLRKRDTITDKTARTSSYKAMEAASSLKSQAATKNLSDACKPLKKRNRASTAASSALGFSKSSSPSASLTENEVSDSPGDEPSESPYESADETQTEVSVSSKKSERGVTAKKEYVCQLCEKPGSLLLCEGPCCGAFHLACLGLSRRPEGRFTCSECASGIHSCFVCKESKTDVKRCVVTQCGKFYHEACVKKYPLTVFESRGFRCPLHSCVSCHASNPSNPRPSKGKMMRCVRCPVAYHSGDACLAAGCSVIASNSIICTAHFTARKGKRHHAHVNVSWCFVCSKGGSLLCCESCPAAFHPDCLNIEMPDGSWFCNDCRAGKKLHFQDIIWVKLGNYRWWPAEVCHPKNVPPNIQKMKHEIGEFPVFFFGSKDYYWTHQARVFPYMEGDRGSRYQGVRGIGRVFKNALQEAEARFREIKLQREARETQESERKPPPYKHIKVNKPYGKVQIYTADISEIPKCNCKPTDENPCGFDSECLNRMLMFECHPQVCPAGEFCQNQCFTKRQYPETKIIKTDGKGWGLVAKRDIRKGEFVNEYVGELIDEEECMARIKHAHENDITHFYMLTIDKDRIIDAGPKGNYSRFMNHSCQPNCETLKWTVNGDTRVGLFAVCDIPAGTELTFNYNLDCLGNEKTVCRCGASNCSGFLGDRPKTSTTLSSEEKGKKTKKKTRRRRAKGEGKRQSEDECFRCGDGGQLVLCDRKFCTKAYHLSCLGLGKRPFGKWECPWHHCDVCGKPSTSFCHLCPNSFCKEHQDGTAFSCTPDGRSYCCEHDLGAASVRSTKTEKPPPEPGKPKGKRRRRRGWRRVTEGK

[18] = non-specific 3'UTR reporter inhibition in Clone20-Shn3RL – cell-based, Renilla luciferase, cherry-picked, counter-screen for Shn3 inhibitor project, dose response (AID 624133); format: functional
[19] = reduction of Shn3 3'UTR-driven luciferase in osteoblasts – cell-based, Clone20 osteoblasts, firefly luciferase, cherry-picked, dose response (AID 624132); format: functional;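 note: firefly luciferase luminescence from reporter carrying the Shn3 3'UTR in osteoblasts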
[20] = loss of viability in HepG2 cells – cell-based, CellTiter-Glo, cherry-picked, cytotoxicity control for Shn3 inhibitor project, dose response (AID 624134); format: functional
[21] = tested on: HEK293; assay: EBV LMP1 TES2 canonical NF-kB signalling blockers – cell-based, HEK293, luciferase, cherry-pick, dose response (AID 588343); format: functional; conditions: Homo sapiens
[22] = target: Cytochrome P450 3A4 (Homo sapiens, UniProt P08684);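 note: CYP3A4 tested as one member of a cytochrome P450 panel screen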
[23] = target: FAD-linked sulfhydryl oxidase ALR (Homo sapiens, UniProt P55789); assay: ALR-catalysed DTT oxidation blockers – biochemical, H2O2 detection, luminescence, cherry-pick, dose response (AID 493248)
Chain of FAD-linked sulfhydryl oxidase ALR (P55789 whole entry): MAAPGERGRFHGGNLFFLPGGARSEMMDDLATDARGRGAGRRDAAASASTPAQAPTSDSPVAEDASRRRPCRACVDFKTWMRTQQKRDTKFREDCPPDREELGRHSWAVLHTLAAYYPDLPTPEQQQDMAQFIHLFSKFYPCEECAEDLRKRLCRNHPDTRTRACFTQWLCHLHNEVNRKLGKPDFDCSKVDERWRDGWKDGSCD

Chain of Genome polyprotein (P29990 2492-3391 limits assumed): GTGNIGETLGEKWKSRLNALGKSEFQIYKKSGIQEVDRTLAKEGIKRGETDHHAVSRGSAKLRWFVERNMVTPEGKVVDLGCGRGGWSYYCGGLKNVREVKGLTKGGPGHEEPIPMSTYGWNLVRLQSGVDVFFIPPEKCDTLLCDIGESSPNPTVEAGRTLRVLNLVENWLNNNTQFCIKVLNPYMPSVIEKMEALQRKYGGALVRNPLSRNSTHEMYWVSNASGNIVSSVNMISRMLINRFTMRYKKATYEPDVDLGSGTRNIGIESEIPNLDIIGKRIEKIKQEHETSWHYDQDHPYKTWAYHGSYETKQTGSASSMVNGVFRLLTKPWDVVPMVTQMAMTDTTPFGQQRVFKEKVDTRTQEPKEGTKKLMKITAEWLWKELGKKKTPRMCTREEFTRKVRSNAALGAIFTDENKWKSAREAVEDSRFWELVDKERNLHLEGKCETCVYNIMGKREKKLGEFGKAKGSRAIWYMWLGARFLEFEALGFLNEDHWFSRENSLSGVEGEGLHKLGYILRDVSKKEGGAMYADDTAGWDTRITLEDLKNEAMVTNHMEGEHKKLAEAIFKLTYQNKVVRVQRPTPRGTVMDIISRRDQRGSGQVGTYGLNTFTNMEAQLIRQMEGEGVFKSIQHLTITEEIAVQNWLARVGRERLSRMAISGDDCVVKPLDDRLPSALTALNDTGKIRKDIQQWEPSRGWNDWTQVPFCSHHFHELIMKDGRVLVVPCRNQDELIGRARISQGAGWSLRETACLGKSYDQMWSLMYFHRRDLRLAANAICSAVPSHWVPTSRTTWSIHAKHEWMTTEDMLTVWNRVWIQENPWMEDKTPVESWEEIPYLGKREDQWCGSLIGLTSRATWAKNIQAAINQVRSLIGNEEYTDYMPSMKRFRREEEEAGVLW
T2 sequence (P11940 whole entry, the tested form may be a part): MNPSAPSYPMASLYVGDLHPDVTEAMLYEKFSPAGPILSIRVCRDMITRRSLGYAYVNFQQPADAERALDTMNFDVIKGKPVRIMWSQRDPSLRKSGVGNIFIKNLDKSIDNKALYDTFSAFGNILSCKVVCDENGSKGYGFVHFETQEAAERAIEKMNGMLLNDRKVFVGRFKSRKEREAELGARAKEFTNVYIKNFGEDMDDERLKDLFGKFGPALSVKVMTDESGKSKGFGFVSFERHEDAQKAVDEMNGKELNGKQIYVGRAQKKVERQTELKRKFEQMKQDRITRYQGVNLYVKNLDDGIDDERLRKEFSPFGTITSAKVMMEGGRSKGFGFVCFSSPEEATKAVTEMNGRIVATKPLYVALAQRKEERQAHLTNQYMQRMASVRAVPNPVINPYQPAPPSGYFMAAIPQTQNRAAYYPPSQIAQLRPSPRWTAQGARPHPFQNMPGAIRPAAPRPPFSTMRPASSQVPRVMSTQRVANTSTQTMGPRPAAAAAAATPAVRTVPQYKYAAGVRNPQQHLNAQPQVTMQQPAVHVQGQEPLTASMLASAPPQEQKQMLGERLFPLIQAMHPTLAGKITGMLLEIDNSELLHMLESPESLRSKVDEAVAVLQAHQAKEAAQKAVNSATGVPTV
Chain of Cytochrome P450 3A4 (P08684 whole entry): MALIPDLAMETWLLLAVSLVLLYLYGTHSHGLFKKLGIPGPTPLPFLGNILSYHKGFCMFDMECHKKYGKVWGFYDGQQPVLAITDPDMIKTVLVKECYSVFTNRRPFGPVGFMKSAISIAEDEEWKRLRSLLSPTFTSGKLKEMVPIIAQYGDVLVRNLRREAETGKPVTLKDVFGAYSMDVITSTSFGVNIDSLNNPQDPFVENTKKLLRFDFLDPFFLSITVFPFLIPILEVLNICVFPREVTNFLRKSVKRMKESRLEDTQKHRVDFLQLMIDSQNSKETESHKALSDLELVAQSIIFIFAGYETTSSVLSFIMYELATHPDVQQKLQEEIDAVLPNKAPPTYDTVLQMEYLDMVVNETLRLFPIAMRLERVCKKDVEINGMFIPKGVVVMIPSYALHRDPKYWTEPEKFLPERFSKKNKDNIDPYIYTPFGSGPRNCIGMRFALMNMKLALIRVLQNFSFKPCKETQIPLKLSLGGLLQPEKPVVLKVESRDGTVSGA

Cc1ccc(/C=N/n2c(S)nnc2-c2cccc(Cl)c2)o1
IC50 [1]: > 20 µM (inactive)
EC50 [2]: > 53 µM (inactive)
IC50 [3]: < 0.368 µM (active)

COc1cc(/C=C2/C(=O)ON=C2C)ccc1OCc1cccc(F)c1
IC50 [4]: 42.6 µM (inactive)
IC50 [5]: 24.1 µM (active)
IC50 [6]: > 66 µM (inactive)
CC50 [7]: 38.2 µM (active)

CC(C)C1Nc2c(O)cc(Cl)c([N+](=O)[O-])c2C2C=CCC21 (centres undefined)
EC50 [8]: 58.5 µM (active)
IC50 [5]: 68.9 µM (active)
AC50 [9]: 8.49 µM (active)
EC50 [10]: 6.36 µM (active)
EC50 [11]: 3.07 µM (active)
EC50 [12]: > 300 µM (not active)
EC50 [13]: 21.9 µM (inconclusive)
EC50 [14]: 0.227 µM (active)
EC50 [15]: > 150 µM (not active)
CC50 [7]: 27.8 µM (active)

N=C1/C(=C\c2ccc(Br)o2)C(=O)N=C2SC(CC(=O)N3CCOCC3)=NN12
IC50 [16]: 18.3 µM (active)
AC50 [17]: > 20 µM (inactive)

CCOC(=O)c1c2c(n(-c3ccc(OC)cc3)c1C)C(=O)C(=O)c1ccccc1-2
AC50 [18]: 3 µM (active)
IC50 [5]: 47 µM (active)
AC50 [19]: 3.15 µM (active)
AC50 [20]: 3.74 µM (active)
CC50 [7]: 2.89 µM (active)

O=S(=O)(c1ccccc1)N1CCN(c2cc(-c3ccccc3)nc3ncnn23)CC1
AC50 [18]: 5.98 µM (active)
AC50 [19]: 1.12 µM (active)
AC50 [20]: 48.1 µM (active)
AC50 [21]: 3.23 µM (active)
AC50 [22]: 14.1 µM (inconclusive)

N#CN=C(Nc1cccc(F)c1)SCc1ccccc1
IC50 [1]: > 20 µM (inactive)

COc1cc(N=C(S)NCCC(c2ccccc2)c2ccccc2)c(OC)cc1Cl
IC50 [1]: > 20 µM (inactive)

Cc1nc2sc(C(N)=O)c(N)c2c2c1CCCC2
AC50 [21]: 10.9 µM (active)

N#Cc1ccccc1CN1C(=O)S/C(=C/c2cccn2-c2ccc(C(=O)O)cc2)C1=O
AC50 [23]: 86.3 µM (active)
EC50 [8]: 44 µM (active)
IC50 [16]: 5.85 µM (active)
EC50 [10]: 61.7 µM (active)
EC50 [11]: 15.8 µM (active)
EC50 [12]: > 300 µM (not active)
EC50 [15]: > 150 µM (not active)
